Series [1] can be described thus: Antitumor activity against human HCCLM3 cells xenografted in BALB/c nude mouse assessed as inhibition of tumor growth at 20 mg/kg measured for 14 days relative to control. To be noted: HCCLM3, 336 h, time 14 day. In kind it is functional.
Series [2] is described as follows: Antitumor activity against human HCCLM3 cells xenografted in BALB/c nude mouse assessed as reduction in Ki67 at 20 mg/kg measured for 14 days (reference value: 41.67+/-7.22% ). In kind it is functional. The arrangement: scale not given: the % may be the effect or the level left. To be noted: time 14 day. In general terms: A xenograft is tissue or cells of one species grown in another, often human tumour cells in immunodeficient mice.

Series [3] is described as follows: […] of cell cycle arrest in human HCCLM3 cells assessed as accumulation of cells at G2/M phase at 25 uM relative to control. The series is classed as functional. The arrangement: scale not given: the % may be the effect or the level left.
A short description of series [4]: […] of cell cycle arrest in human HepG2 cells assessed as accumulation of cells at S phase at 50 uM relative to control. More on the design: scale not given: the % may be the effect or the level left. In kind it is functional.
Series [5] in a line: […] of cell cycle arrest in human HepG2 cells assessed as accumulation of cells at G2/M phase at 50 uM relative to control. In kind it is functional. More on the design: scale not given: the % may be the effect or the level left.
The nature of series [6]: […] of cell cycle arrest in human HCCLM3 cells assessed as accumulation of cells at S phase at 25 uM relative to control. The arrangement: scale not given: the % may be the effect or the level left. The series is classed as functional.
Series [7] deals with Bel-7402. Description: Antitumor activity against human Bel-7402 cells xenografted in mouse assessed as reduction in tumor volume at 2 mg/kg, ip administered daily for 21 days by caliper method relative to control. The series is classed as functional. The arrangement: scale not given: the % may be the effect or the level left. As to conditions: time 21 day.
Series [8] can be described thus: Half life in Kunming mouse at 15 to 30 mg/kg measured upto 240 mins. As to conditions: in vivo, dose 15-30 mg/kg. In kind it is ADME, organism-based.
The next series concerns H22. Nature of the series: Antitumor activity against […] cells xenografted in mouse assessed as reduction in tumor volume at 2 mg/kg, ip administered daily for 21 days by caliper method relative to control. In kind it is functional. More on the design: scale not given: the % may be the effect or the level left. To be noted: time 21 day.
Series [9] concerns Hep 3B2. Description: Cytotoxicity against human Hep3B cells by SRB assay. In kind it is functional, cell-based. In general terms: Sulforhodamine B stains cellular protein and so reports cell mass.
Series [10] in a line: Cytotoxicity against human HCC cells by SRB assay. The series is classed as functional, cell-based.
The test system of series [11] is Bel-7402. Description: Cytotoxicity against human Bel-7402 cells by SRB assay. In kind it is functional, cell-based.
In series [12] the test system is SMMC-7721. Description: Cytotoxicity against human SMMC-7721 cells assessed as reduction in cell viability by SRB assay. The series is classed as functional, cell-based.
Series [13] in a line: Cytotoxicity against human Zip177 cells by SRB assay. The series is classed as functional, cell-based.
The subject of series [14] is Hep 3B2. Nature of the series: Cytotoxicity against human Hep3B cells measured after 1 hr by SRB assay. The series is classed as functional, cell-based.
The next series has as its system SK-HEP1. Description: Cytotoxicity against human SK-HEP1 cells measured after 1 hr by SRB assay. In kind it is functional, cell-based. As to conditions: SK-HEP1, 1 h.
Series [15] concerns PLC-PRF-5. Description: Cytotoxicity against human PLC-PRF-5 cells measured after 1 hr by SRB assay. The series is classed as functional, cell-based. To be noted: PLC-PRF-5, 1 h.
For series [16], the system named is HepG2. Description: Cytotoxicity against human HepG2 cells measured after 1 hr by SRB assay. The series is classed as functional, cell-based. As to conditions: HepG2, 1 h.
The nature of series [17]: Cytotoxicity against human Huh-7D12 cells measured after 1 hr by SRB assay. The series is classed as functional, cell-based. To be noted: Huh-7D12, 1 h.
Series [18] has as its system HepG2. Nature of the series: Antiproliferative activity against human HepG2 cells assessed as reduction in cell viability at 50 ug/ml measured after 24 hrs relative to control. To be noted: HepG2, 24 h. The series is classed as functional, cell-based.
For series [19], the system named is SMMC-7721. Nature of the series: Antitumor activity against human SMMC-7721 cells xenografted in mouse assessed as reduction in tumor growth at 50 microg/kg administered daily for 40 days relative to control. In kind it is functional. The arrangement: scale not given: the % may be the effect or the level left. As to conditions: dose 50 µg/kg; time 40 day.
Series [20] relates to SMMC-7721. Nature of the series: Induction of cell cycle arrest in human SMMC-7721 cells assessed as accumulation of cells at G0/G1 phase at 200 nM incubated for 24 hrs relative to control. In kind it is functional.
Series [21] deals with SMMC-7721. Description: Induction of cell cycle arrest in human SMMC-7721 cells assessed as accumulation of cells at G0/G1 phase at 50 nM incubated for 24 hrs relative to control. The series is classed as functional.
For series [22], the system named is PLC-PRF-5. Nature of the series: Induction of cell cycle arrest in human PLC-PRF-5 cells assessed as accumulation of cells at G0/G1 phase at 100 nM incubated for 24 hrs relative to control. In kind it is functional.
Series [23] relates to PLC-PRF-5. Nature of the series: Induction of cell cycle arrest in human PLC-PRF-5 cells assessed as accumulation of cells at G0/G1 phase at 50 nM incubated for 24 hrs relative to control. The series is classed as functional.
Series [24] concerns SMMC-7721. Nature of the series: Induction of cell cycle arrest in human SMMC-7721 cells assessed as accumulation of cells at G0/G1 phase at 100 nM incubated for 24 hrs relative to control. The series is classed as functional.
Series [25] has as its system PLC-PRF-5. Nature of the series: Induction of cell cycle arrest in human PLC-PRF-5 cells assessed as accumulation of cells at G0/G1 phase at 200 nM incubated for 24 hrs relative to control. In kind it is functional.
For series [26], the system named is SMMC-7721. Description: Antitumor activity against human SMMC-7721 cells xenografted in mouse assessed as reduction in tumor growth at 25 microg/kg administered daily for 40 days relative to control. In kind it is functional. More on the design: scale not given: the % may be the effect or the level left. As to conditions: dose 25 µg/kg; time 40 day.

As usually defined, the inhibition in vivo is the change of the read-out against control, counted positive when it falls. In the case of `COc1cc2ccnc3c2c(c1OC)NC=C3` [AAPTAMINE], the inhibition in vivo at 20 mg/kg in series [1] was found to be 40.3%. Besides, the Activity came to 72.2% in [2]; 50% in [3]; 50% in series [4]; 50% in series [5]; 50% in series [6].
Usually half-life stands for the time in which the quantity being followed falls by half. Take `COc1cccc2c1C(=O)c1c(O)c3c(c(O)c1C2=O)C[C@@](O)(C(=O)CO)C[C@@H]3O[C@H]1C[C@H](N)[C@H](O)[C@H](C)O1.Cl` [DOXORUBICIN HYDROCHLORIDE]: the Activity with Bel-7402 [7] was 73.5%; in the series with H22, 51.9%. This compound also gave a half-life in [8] of 23 h.
A word on the IC50: it is the concentration that gives 50% inhibition. With `COC(=O)[C@H](CCCC(C)C)[C@H]1CC[C@H]2[C@@H]3CC[C@H]4CC(=O)C=C[C@]4(C)[C@H]3CC[C@]12C` [METHYL SPONGOATE], the IC50 with Hep 3B2 [9] came to 5000 nM; in series [10] it was 4400 nM; in the series on Bel-7402 [11], 1700 nM; with SMMC-7721 [12], 2000 nM; in series [13], 3000 nM.
For the compound `C/C=C1/NC(=O)[C@H](Cc2ccccc2)NC(=O)[C@@H](C(C)C)NC(=O)[C@@H]([C@@H](C)CC)NC(=O)[C@H](NC(=O)[C@H](NC(=O)[C@H](CCCN)NC(=O)[C@H]2CCCN2C(=O)[C@H](NC(=O)[C@@H](NC(=O)[C@@H](NC(=O)[C@H](NC(=O)CCCC(C)C)C(C)C)[C@@H](C)O)C(C)C)C(C)C)[C@@H](C)CC)[C@@H](C)OC(=O)[C@H](C(C)C)NC1=O`, the IC50 with Hep 3B2 [14] came out at 350 nM; in the series on SK-HEP1 it was 2400 nM; with PLC-PRF-5 [15], 5300 nM; with HepG2 [16], 300 nM; in series [17], 300 nM.
Regarding H-RIRDAIAHGYIVDKV-OH, the IC50 in the series on HepG2 [18] worked out at 28300 nM.
In the case of `CCC/C=C/C=C/C(=O)O[C@H]1/C(=C/C(=O)OC)C[C@H]2C[C@H]([C@@H](C)O)OC(=O)C[C@H](O)C[C@@H]3C[C@H](OC(C)=O)C(C)(C)[C@](O)(C[C@@H]4C/C(=C/C(=O)OC)C[C@H](/C=C/C(C)(C)[C@]1(O)O2)O4)O3` [BRYOSTATIN 1], the Activity in the series with SMMC-7721 [19] is reported as 39%; in the series on SMMC-7721 [20] it was 56%; in the series on SMMC-7721 [21] it was 37%; in the series with PLC-PRF-5 [22], 40%; with PLC-PRF-5 [23], 34%; in the series with SMMC-7721 [24] it was 44%. Besides, the Activity in the series on PLC-PRF-5 [25] amounted to 54%; with SMMC-7721 [26], 32%.

The values are drawn from ChEMBL document CHEMBL5236548, “Marine Natural Products: A Potential Source of Anti-hepatocellular Carcinoma Drugs” (J Med Chem, 2021).
